Tests used:
Type in all cases: biochemical
thrombin (IIa) = molecular target: T1, thrombin (IIa) (Homo sapiens, UniProt P00734); experiment: Fluorogenic enzyme assay (Example 5); set-up: key to Kinetic constants, IIa (symbol b): slow substrate hydrolysis, no kinetic constants calculated
T1 construct: 0.5 nM human thrombin (IIa)
Experimental: (§1) Enzyme assays (except factor VIIa assays, see below) were conducted in 20 mM Tris, 150 mM NaCl, pH 7.4 (TBS) at room temperature (22° C.). The final volume for all reaction mixtures was 2.0 ml. Fluorogenic substrates were dissolved in DMSO to a stock concentration of 10 mM. The 10 mM stock solution was diluted in TBS to the final working concentration prior to all assays. Enzyme was added to mixtures containing buffer components and substrate and the initial rate of substrate hydrolysis was measured as the change in fluorescent intensity over time, corresponding to the generation of the particular 6-amino-1-naphthalenesulfonamide fluorophore from the provided substrate. Quantitation of substrate hydrolysis was accomplished by establishing a standard curve from the appropriate fluorescent moiety. Fluorescence was monitored (continuously or discontinuously) using a Perkin Elmer fluorescence spectrophotometer, model MPF-44A, equipped with a standard chart recorder. The fluorophore was detected using monochrometers set at an excitation wavelength of 352 nm and an emission wavelength of 470 nm. Light scattering artifacts were minimized using a 399 nm cut off filter in the emission light beam.
(§2) The kinetic constants of substrate hydrolysis were determined using the non-linear least squares regression analysis program ENZFITTER (Cambridge, UK). This program was used to iteratively fit initial rates of substrate hydrolysis to the Michaelis-Menten equation and the kinetic constants of substrate hydrolysis (Km) and (kcat) were calculated.

factor Xa = factor Xa (Homo sapiens, UniProt P00742); experiment: Fluorogenic enzyme assay (Example 5); set-up: key to Kinetic constants, Xa (symbol b): slow substrate hydrolysis, no kinetic constants calculated; conditions: for TIME TO 10% HYDROLYSIS (HOURS), Xa / hydrolysis, Xa (symbol d): substrate 1 μM; for hydrolysis, Xa (symbol d): at 100 hours
Chain of factor Xa (P00742 235-488 limits assumed): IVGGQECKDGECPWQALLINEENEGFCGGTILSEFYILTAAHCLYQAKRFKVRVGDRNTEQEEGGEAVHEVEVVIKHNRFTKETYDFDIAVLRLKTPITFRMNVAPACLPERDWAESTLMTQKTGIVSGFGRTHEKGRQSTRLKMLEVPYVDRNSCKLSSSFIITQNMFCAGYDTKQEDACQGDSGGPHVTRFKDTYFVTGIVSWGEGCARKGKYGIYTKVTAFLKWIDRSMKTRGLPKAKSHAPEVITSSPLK
Chain of factor Xa (P00742 41-179 limits assumed): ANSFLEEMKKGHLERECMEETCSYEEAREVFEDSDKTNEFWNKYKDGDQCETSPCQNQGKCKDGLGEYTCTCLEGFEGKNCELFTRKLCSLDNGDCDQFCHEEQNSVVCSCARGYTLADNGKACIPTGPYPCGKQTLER
Experimental: as §1, §2

[1] = molecular target: activated protein C (APC) (Homo sapiens, UniProt P04070); experiment: Fluorogenic enzyme assay (Example 5); set-up: key to Kinetic constants, APC (symbol b): slow substrate hydrolysis, no kinetic constants calculated; conditions: for TIME TO 10% HYDROLYSIS (HOURS), APC: substrate 1 μM
Chain of activated protein C (APC) (P04070 212-461 limits assumed): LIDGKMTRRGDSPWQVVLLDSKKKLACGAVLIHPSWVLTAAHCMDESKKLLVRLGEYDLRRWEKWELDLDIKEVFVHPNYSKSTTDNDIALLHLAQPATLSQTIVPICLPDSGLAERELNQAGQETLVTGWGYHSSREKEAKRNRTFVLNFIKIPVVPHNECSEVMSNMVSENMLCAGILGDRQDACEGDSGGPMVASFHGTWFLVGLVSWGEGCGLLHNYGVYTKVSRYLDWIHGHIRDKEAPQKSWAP
Chain of activated protein C (APC) (P04070 43-197 limits assumed): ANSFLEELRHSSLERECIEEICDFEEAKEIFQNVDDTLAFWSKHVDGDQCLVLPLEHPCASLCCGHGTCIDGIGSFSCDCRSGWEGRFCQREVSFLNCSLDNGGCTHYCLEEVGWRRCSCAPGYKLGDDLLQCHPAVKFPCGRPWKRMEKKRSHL
Experimental: as §1, §2

plasmin (Plm) = plasmin (Plm) (Homo sapiens, UniProt P00747); experiment: Fluorogenic enzyme assay (Example 5); conditions: substrate 1 μM
Chain of plasmin (Plm) (P00747 581-810 limits assumed, species assumed): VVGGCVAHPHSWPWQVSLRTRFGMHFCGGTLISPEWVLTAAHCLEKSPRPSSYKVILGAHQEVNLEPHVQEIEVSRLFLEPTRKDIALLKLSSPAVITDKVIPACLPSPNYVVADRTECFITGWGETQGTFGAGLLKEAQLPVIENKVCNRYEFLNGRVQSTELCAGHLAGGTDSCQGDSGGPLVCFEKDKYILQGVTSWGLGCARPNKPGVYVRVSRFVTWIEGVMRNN
Chain of plasmin (Plm) (P00747 97-580 limits assumed, species assumed): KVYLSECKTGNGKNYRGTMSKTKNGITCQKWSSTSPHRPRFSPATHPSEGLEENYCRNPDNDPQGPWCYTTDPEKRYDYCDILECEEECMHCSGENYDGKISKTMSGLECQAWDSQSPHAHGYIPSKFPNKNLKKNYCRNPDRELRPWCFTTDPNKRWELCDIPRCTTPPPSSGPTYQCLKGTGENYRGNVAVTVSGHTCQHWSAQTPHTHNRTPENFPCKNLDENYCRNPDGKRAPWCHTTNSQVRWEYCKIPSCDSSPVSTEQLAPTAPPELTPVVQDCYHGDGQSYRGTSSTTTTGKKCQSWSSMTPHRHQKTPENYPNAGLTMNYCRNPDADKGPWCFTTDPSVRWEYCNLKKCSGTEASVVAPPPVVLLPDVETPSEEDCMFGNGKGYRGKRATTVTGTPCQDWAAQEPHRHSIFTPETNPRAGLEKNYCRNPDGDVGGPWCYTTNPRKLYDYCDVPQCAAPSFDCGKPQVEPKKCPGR
Experimental: as §1, §2

[2] = molecular target: tissue plasminogen activator (t-PA) (Homo sapiens, UniProt P00750); experiment: Fluorogenic enzyme assay (Example 5); conditions: 100 nM enzyme, substrate 1 μM; for hydrolysis, t-PA (symbol d): at 100 hours
Chain of tissue plasminogen activator (t-PA) (P00750 36-562, species assumed): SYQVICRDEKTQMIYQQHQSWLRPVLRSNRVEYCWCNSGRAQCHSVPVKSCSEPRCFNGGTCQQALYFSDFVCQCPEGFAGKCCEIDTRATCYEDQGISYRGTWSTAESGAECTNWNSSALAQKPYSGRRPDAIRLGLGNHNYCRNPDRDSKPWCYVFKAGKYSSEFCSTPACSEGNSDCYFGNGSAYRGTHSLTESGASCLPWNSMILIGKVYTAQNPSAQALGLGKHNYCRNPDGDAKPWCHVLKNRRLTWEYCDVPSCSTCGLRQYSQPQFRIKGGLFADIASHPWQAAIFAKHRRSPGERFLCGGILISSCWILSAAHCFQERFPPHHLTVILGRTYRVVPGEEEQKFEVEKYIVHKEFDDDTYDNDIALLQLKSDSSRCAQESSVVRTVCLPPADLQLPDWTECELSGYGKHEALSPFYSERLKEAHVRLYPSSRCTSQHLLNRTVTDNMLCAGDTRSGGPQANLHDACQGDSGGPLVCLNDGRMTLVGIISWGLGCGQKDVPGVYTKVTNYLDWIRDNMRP
Experimental: as §1, §2

urokinase (u-PA) = urokinase (u-PA) (Homo sapiens, UniProt P00749); experiment: Fluorogenic enzyme assay (Example 5); conditions: 100 nM enzyme, substrate 1 μM; for hydrolysis, u-PA (symbol d): at 100 hours
Experimental: as §1, §2

factor VIIa = molecular target: T2, factor VIIa (Homo sapiens, UniProt P08709); experiment: Fluorogenic enzyme assay, relative hydrolysis rates (Table 8); conditions: at 100 hours; 10 nM enzyme, substrate 1 μM
T2 construct: directly measure the enzymatic activity of factor VIIa in the presence and absence of tissue factor and phospholipid
T2 sequence (P08709 213-466 limits assumed): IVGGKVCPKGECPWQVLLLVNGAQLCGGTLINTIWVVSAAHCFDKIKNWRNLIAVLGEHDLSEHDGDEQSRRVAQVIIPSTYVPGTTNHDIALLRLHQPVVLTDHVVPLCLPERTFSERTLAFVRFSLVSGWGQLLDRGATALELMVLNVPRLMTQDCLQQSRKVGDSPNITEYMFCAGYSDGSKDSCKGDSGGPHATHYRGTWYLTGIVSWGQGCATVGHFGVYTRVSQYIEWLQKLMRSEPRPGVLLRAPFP
T2 sequence (P08709 61-212 limits assumed): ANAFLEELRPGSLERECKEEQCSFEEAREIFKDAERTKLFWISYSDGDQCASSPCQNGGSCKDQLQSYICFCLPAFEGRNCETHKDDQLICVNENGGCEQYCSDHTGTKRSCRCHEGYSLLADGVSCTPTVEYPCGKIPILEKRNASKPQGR
Experimental: as §1
Factor VII assays were conducted in 20 mM HEPES, 150 mM NaCl, 5 mM CaCl2, pH 7.4 (HBS) at 37° C. The final volume for all reactions was 1.6 ml. 6-(Mes-D-Leu-Gly-Arg)amino-1-(N,N-diethyl)naphthalenesulfonamide was dissolved in DMSO to a stock concentration of 10 mM. This 10 mM stock solution of was diluted in HBS to final working concentration prior to all assays. For reactions involving tissue factor (TF) and phospholipid vesicles, recombinant human tissue factor was solubilized in either 0.04% n-dodecyl octaethylene glycol (C12 E8) or 0.8% octyl glucoside. The TF/n-dodecyl octaethylene glycol was then relipidated into PCPS or PC vesicles by a 30 minute incubation step as described by Lawson & Mann, J. Biol. Chem. 266: 11317-11327 (1991). TF/octyl glucoside was relipidated into PC or PCPS vesicles by a thirty minute incubation step followed by exhaustive dialysis. The final concentration of tissue factor used in the studies described here ranged from 2 to 50 nM depending on the nature of the experiment.
Fifteen minutes prior to the start of all reactions factor VIIa was added to the reaction system. This incubation period was followed by the addition of substrate (1 μM to 400 μM) to the mixture to start the reaction. In experiments designed to determine kinetic constants of substrate hydrolysis, 50 nM rVIIa was used when no tissue factor was present in the reaction system, while 0.5 nM rVIIa was used when tissue factor was present in the reaction system. The rate of substrate hydrolysis was measured by change in fluorescence over time, which corresponded with the generation of the 6-amino-1-(N,N-diethyl)naphthalenesulfonamide from the provided substrate. The kinetic constants of 6-(Mes-D-Leu-Gly-Arg)amino-1-(N,N-diethyl)naphthalenesulfonamide hydrolysis as a function of factor VIIa/tissue factor complex assembly are shown in Table 10.

factor IXa = factor IXa (Homo sapiens, UniProt P00740); experiment: Fluorogenic enzyme assay (Example 5); set-up: key to Kinetic constants, IXa (symbol b): slow substrate hydrolysis, no kinetic constants calculated; conditions: for hydrolysis, IXa (symbol d): at 100 hours
Chain of factor IXa (P00740 227-461 limits assumed): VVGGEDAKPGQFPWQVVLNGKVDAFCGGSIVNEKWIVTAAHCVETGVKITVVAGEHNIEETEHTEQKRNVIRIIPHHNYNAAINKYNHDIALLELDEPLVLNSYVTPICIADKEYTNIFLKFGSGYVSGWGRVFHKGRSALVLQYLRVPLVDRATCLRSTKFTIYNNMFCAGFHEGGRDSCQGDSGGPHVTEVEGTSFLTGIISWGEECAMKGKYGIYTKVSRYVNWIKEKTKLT
Chain of factor IXa (P00740 47-191 limits assumed): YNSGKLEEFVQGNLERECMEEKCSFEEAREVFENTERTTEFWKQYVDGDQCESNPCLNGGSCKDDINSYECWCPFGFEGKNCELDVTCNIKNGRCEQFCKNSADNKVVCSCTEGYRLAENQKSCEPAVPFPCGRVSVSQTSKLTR
Experimental: as §1, §2

## CN(C)S(=O)(=O)c1cccc2cc(NC(=O)[C@H](CCCNC(=N)N)NC(=O)[C@H](CCCCNC(=O)OCc3ccccc3)NC(=O)OC(C)(C)C)ccc12 [(N^α -Boc,N^.cndot. -Z)KR-ANSN(CH23)2]
Thrombin (IIa); 10 nM enzyme, substrate 1 μM
  TIME TO 10% HYDROLYSIS (HOURS), IIa: 18 h
Factor Xa; 100 nM enzyme (footnote b)
  TIME TO 10% HYDROLYSIS (HOURS), Xa: 24 h
[1]; 100 nM enzyme (footnote b)
  TIME TO 10% HYDROLYSIS (HOURS), APC: 11 h
Plasmin (Plm); 100 nM enzyme (footnote b)
  TIME TO 10% HYDROLYSIS (HOURS), Plm: 1.5 h
[2]
  hydrolysis, t-PA (symbol d): d (hydrolysis at 100 hours was less than 10%.)
Urokinase (u-PA)
  hydrolysis, u-PA (symbol d): d (hydrolysis at 100 hours was less than 10%.)
Factor VIIa
  hydrolysis, VIIa (symbol d): d (hydrolysis at 100 hours was less than 10%.)
Factor IXa; 100 nM enzyme, substrate 1 μM
  hydrolysis, IXa (symbol d): d (hydrolysis at 100 hours was less than 10%.)

## CCCNS(=O)(=O)c1cccc2cc(NC(=O)[C@H](CCCNC(=N)N)NC(=O)[C@H](Cc3ccccc3)NC(=O)[C@@H]3CCCN3C(=O)OC(C)(C)C)ccc12 [BocPFR-ANSNHC3 H7]
Thrombin (IIa); 10 nM enzyme, substrate 1 μM
  TIME TO 10% HYDROLYSIS (HOURS), IIa: 4 h
Thrombin (IIa); Table 9
  Km: 44.4 µM
  kcat /Km, IIa: 900 s⁻¹ M⁻¹
  kcat, IIa: 0.04 s⁻¹
Factor Xa; 10 nM enzyme
  TIME TO 10% HYDROLYSIS (HOURS), Xa: 9 h
Factor Xa; Table 9
  Km: 230 µM
  kcat /Km, Xa: 260 s⁻¹ M⁻¹
  kcat, Xa: 0.06 s⁻¹
[1]; 10 nM enzyme
  TIME TO 10% HYDROLYSIS (HOURS), APC: 3 h
[1]; Table 9
  Kinetic constants, APC (symbol b): b
Plasmin (Plm); 10 nM enzyme
  TIME TO 10% HYDROLYSIS (HOURS), Plm: 22 h
[2]
  TIME TO 10% HYDROLYSIS (HOURS), t-PA: 4 h
Urokinase (u-PA)
  TIME TO 10% HYDROLYSIS (HOURS), u-PA: 5 h
Factor VIIa
  hydrolysis, VIIa (symbol d): d (hydrolysis at 100 hours was less than 10%.)
Factor IXa; Table 9
  Kinetic constants, IXa (symbol b): b
Factor IXa; 100 nM enzyme, substrate 1 μM
  hydrolysis, IXa (symbol d): d (hydrolysis at 100 hours was less than 10%.)

## Br.Br.CC(C)C[C@@H](N)C(=O)N1CCC[C@H]1C(=O)N[C@@H](CCCNC(=N)N)C(=O)Nc1ccc2c(S(=O)(=O)N3CCCCC3)cccc2c1 [D-LPR-ANSN(CH2)5]
Thrombin (IIa); 1 nM enzyme (footnote c), substrate 1 μM
  TIME TO 10% HYDROLYSIS (HOURS), IIa: 0.01 h
Thrombin (IIa); Table 9
  Km: 7.7 µM
  kcat, IIa: 11.6 s⁻¹
Factor Xa; 10 nM enzyme
  TIME TO 10% HYDROLYSIS (HOURS), Xa: 0.4 h
Factor Xa; Table 9
  Km: 400 µM
  kcat /Km, Xa: 7250 s⁻¹ M⁻¹
  kcat, Xa: 2.9 s⁻¹
[1]; 10 nM enzyme
  TIME TO 10% HYDROLYSIS (HOURS), APC: 0.02 h
[1]; Table 9
  Km: 160 µM
  kcat /Km, APC: 6880 s⁻¹ M⁻¹
  kcat, APC: 1.1 s⁻¹
Plasmin (Plm); 10 nM enzyme
  TIME TO 10% HYDROLYSIS (HOURS), Plm: 0.33 h
[2]
  TIME TO 10% HYDROLYSIS (HOURS), t-PA: 1.3 h
Urokinase (u-PA)
  TIME TO 10% HYDROLYSIS (HOURS), u-PA: 1 h
Factor VIIa
  hydrolysis, VIIa (symbol d): d (hydrolysis at 100 hours was less than 10%.)
Factor IXa; 100 nM enzyme, substrate 1 μM
  TIME TO 10% HYDROLYSIS (HOURS), IXa: 4 h
Factor IXa; Table 9
  Km: 343 µM
  kcat, IXa: 0.4 s⁻¹
  kcat/Km, IXa: 1170 s⁻¹ M⁻¹

## Br.Br.Br.N=C(N)NCCC[C@H](NC(=O)CNC(=O)CN)C(=O)N[C@@H](CCCNC(=N)N)C(=O)Nc1ccc2c(S(=O)(=O)NC3CCCCC3)cccc2c1 [GGRR-ANSNH(cyclo-C6 H11)]
Thrombin (IIa); 10 nM enzyme, substrate 1 μM
  TIME TO 10% HYDROLYSIS (HOURS), IIa: 93 h
Thrombin (IIa); Table 9
  Kinetic constants, IIa (symbol b): b
Factor Xa; 100 nM enzyme (footnote b)
  TIME TO 10% HYDROLYSIS (HOURS), Xa: 46 h
Factor Xa; Table 9
  Kinetic constants, Xa (symbol b): b
[1]; 10 nM enzyme
  TIME TO 10% HYDROLYSIS (HOURS), APC: 0.5 h
[1]; Table 9
  Km: 267 µM
  kcat /Km, APC: 11600 s⁻¹ M⁻¹
  kcat, APC: 3.1 s⁻¹
Plasmin (Plm); 100 nM enzyme (footnote b)
  TIME TO 10% HYDROLYSIS (HOURS), Plm: 2.5 h
[2]
  hydrolysis, t-PA (symbol d): d (hydrolysis at 100 hours was less than 10%.)
Urokinase (u-PA)
  TIME TO 10% HYDROLYSIS (HOURS), u-PA: 24 h
Factor VIIa
  hydrolysis, VIIa (symbol d): d (hydrolysis at 100 hours was less than 10%.)
Factor IXa; Table 9
  Kinetic constants, IXa (symbol b): b
Factor IXa; 100 nM enzyme, substrate 1 μM
  hydrolysis, IXa (symbol d): d (hydrolysis at 100 hours was less than 10%.)

## Br.Br.Br.CN(C)S(=O)(=O)c1cccc2cc(NC(=O)[C@H](CCCNC(=N)N)NC(=O)[C@@H](N)CCCCN)ccc12 [KR-ANSN(CH3)2]
Thrombin (IIa); at 100 hours, 10 nM enzyme, substrate 1 μM
  hydrolysis, IIa (symbol d): d (hydrolysis at 100 hours was less than 10%.)
Factor Xa; 10 nM enzyme
  hydrolysis, Xa (symbol d): d (hydrolysis at 100 hours was less than 10%.)
[1]; 100 nM enzyme (footnote b)
  TIME TO 10% HYDROLYSIS (HOURS), APC: 8 h
Plasmin (Plm); 100 nM enzyme (footnote b)
  TIME TO 10% HYDROLYSIS (HOURS), Plm: 8 h
[2]
  hydrolysis, t-PA (symbol d): d (hydrolysis at 100 hours was less than 10%.)
Urokinase (u-PA)
  hydrolysis, u-PA (symbol d): d (hydrolysis at 100 hours was less than 10%.)
Factor VIIa
  hydrolysis, VIIa (symbol d): d (hydrolysis at 100 hours was less than 10%.)
Factor IXa; 100 nM enzyme, substrate 1 μM
  hydrolysis, IXa (symbol d): d (hydrolysis at 100 hours was less than 10%.)

## CN(C)S(=O)(=O)c1cccc2cc(NC(=O)[C@H](CCCNC(=N)N)NC(=O)[C@@H](N)CCCCNC(=O)OCc3ccccc3)ccc12.Cl.Cl [N^ω -AZ)KJR-ANSN(CH3)2]
Thrombin (IIa); 10 nM enzyme, substrate 1 μM
  TIME TO 10% HYDROLYSIS (HOURS), IIa: 26 h
Factor Xa; 10 nM enzyme
  hydrolysis, Xa (symbol d): d (hydrolysis at 100 hours was less than 10%.)
[1]; 100 nM enzyme (footnote b)
  TIME TO 10% HYDROLYSIS (HOURS), APC: 5.5 h
Plasmin (Plm); 100 nM enzyme (footnote b)
  TIME TO 10% HYDROLYSIS (HOURS), Plm: 1.5 h
[2]
  hydrolysis, t-PA (symbol d): d (hydrolysis at 100 hours was less than 10%.)
Urokinase (u-PA)
  hydrolysis, u-PA (symbol d): d (hydrolysis at 100 hours was less than 10%.)
Factor VIIa
  hydrolysis, VIIa (symbol d): d (hydrolysis at 100 hours was less than 10%.)
Factor IXa; 100 nM enzyme, substrate 1 μM
  hydrolysis, IXa (symbol d): d (hydrolysis at 100 hours was less than 10%.)

From patent US5399487A, “6-peptidylamino-1-naphthalenesulfonamides useful as fluorogenic proteolytic enzyme substrates” (Haematologic Technologies, Inc., priority 1993, dated 1995)
